Patent US20260193264A1, “BENZOYPARAZINE PYRAZINES AND THEIR USES” (FOGHORN THERAPEUTICS INC., priority 2022, published 2026)

What was measured:
[1] = biological target: T1, HiBiT-BRM fusion protein in stable HeLa cell line (Homo sapiens, UniProt P51531); assay: HiBiT-BRM cell-based degradation assay (Nano-Glo HiBiT Lytic Detection, 24 h); design: DC50: scale not given here; settings: HeLa HiBiT-BRM cells; for DC50: read-out: BRM HiBit Degradation IC50; for BRM HiBit Degradation Maximum (%): top dose 30 μM
T1 construct: expressed in transfected cells
T1 sequence (P51531 whole entry, the tested form may be a part): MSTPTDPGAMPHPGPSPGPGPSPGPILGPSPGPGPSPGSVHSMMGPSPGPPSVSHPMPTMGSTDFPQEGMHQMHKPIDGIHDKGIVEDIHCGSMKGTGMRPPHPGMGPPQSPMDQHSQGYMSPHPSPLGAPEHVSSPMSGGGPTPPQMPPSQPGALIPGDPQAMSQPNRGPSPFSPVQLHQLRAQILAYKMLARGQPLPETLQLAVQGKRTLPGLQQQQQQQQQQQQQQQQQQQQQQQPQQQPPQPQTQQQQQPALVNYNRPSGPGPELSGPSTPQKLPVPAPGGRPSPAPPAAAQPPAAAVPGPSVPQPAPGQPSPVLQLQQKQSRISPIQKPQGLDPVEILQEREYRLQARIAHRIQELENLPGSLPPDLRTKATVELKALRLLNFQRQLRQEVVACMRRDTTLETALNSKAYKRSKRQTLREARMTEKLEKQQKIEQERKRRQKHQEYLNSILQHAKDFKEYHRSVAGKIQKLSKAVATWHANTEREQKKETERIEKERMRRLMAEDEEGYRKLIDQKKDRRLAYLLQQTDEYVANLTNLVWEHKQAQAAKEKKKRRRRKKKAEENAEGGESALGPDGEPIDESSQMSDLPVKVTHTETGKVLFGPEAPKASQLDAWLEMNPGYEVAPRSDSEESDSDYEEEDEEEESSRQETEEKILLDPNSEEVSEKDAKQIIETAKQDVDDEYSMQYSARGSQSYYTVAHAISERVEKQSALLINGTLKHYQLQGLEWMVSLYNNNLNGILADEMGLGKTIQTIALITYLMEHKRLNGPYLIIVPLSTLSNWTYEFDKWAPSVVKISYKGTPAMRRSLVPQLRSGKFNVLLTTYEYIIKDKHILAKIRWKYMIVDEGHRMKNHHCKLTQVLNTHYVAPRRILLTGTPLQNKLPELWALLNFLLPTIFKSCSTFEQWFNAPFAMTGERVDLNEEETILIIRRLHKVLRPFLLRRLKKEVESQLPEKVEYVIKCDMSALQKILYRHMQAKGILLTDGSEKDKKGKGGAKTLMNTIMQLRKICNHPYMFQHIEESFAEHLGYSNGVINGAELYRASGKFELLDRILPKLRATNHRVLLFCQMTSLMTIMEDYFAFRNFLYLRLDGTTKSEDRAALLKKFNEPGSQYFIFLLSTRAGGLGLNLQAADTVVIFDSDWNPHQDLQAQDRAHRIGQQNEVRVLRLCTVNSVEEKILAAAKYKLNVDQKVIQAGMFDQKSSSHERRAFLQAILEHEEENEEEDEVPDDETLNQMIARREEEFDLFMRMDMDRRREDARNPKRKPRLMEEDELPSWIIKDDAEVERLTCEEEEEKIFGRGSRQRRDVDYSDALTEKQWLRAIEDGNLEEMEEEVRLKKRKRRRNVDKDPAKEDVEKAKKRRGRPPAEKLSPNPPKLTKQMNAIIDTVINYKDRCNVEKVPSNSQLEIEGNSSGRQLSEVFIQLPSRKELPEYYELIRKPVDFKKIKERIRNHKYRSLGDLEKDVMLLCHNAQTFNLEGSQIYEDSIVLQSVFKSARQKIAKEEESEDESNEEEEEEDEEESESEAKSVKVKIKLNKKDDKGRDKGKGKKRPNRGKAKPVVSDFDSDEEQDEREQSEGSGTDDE
Outline: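 Stable HiBiT-BRM HeLa cells were treated with 10-point 3-fold serial dilutions (30 μM final top dose, duplicate) for 24 h, then lysed with LgBiT-containing detection reagent and luminescence read. Degradation % was normalised to DMSO (high control) and 2 μM reference BRM/BRG1 degrader (low control).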

[2] = biological target: T2, HiBit-BRG1 fusion protein in stable HeLa cell line expressing HiBit-BRG1 and LgBit (Homo sapiens, UniProt P51532); assay: HiBiT-BRG1 cell-based degradation assay (Nano-Glo HiBiT, 24 h); settings: HeLa HiBit-BRG1/LgBit cells; for DC50: read-out: BRMG1 HiBit Degradation IC50; for Dmax: top dose 30 μM, read-out: BRG1 HiBit Degradation Maximum (%)
T2 construct: expressed in transfected cells
T2 sequence (P51532 whole entry, the tested form may be a part): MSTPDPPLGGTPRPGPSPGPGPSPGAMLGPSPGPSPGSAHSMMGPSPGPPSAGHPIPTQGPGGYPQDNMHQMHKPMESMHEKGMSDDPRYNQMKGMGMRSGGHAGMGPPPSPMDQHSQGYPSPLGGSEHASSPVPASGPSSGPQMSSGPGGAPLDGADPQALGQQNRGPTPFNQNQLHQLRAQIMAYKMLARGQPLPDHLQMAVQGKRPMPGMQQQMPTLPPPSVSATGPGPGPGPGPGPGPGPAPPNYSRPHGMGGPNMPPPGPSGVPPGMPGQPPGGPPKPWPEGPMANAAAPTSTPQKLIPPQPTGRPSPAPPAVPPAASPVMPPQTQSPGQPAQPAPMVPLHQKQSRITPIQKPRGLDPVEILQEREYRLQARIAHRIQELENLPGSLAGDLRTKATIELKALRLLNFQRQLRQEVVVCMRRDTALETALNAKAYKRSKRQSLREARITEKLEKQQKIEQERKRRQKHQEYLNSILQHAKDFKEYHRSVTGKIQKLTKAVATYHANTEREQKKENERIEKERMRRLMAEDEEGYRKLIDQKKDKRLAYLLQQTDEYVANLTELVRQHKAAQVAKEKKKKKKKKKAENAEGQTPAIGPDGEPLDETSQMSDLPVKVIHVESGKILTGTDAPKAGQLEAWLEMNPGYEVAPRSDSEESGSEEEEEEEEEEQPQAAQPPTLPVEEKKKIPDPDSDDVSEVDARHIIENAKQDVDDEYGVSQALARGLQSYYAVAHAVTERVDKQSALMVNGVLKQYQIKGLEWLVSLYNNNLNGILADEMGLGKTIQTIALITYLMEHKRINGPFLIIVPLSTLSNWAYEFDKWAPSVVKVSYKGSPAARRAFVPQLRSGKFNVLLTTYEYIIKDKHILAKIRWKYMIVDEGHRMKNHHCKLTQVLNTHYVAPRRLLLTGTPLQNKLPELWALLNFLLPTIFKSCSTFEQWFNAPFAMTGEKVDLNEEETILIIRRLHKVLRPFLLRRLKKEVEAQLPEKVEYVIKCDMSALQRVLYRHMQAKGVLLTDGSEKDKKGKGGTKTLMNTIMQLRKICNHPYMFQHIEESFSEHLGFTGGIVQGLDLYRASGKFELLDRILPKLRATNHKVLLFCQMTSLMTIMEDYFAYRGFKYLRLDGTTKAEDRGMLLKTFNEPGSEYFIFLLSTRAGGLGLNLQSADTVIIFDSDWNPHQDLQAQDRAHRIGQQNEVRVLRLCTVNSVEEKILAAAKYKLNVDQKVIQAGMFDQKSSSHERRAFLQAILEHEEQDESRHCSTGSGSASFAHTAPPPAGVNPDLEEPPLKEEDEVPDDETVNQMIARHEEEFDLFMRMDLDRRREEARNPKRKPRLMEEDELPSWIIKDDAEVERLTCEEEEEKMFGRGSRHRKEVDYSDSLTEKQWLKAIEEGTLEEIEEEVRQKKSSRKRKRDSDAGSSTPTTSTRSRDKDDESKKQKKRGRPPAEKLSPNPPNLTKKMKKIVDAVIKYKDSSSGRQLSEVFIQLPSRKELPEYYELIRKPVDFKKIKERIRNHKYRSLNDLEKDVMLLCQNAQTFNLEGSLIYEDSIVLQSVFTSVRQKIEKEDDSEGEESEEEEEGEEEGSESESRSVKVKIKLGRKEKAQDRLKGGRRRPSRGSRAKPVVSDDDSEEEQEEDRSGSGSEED
Outline: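 Stable HeLa line co-expressing HiBiT-BRG1 and LgBiT, compound-treated 24 h; luminescence read after Nano-Glo HiBiT lytic reagent. % degradation normalised between DMSO (high control) and 2 μM reference BRM/BRG1 degrader (low control).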

Structure (SMILES)	DC50 [1]	BRM HiBit Degradation Maximum (%) [1]	DC50 [2]	Dmax [2]
Cc1ncsc1-c1ccc([C@H](C)NC(=O)[C@@H]2C[C@@H](O)CN2C(=O)[C@@H](c2cc(N3CCC4(CC[C@@H](c5ccc6nnc(-c7ccccc7O)cc6c5)C4)CC3)no2)C(C)C)cc1 [Compound 76, (2S,4R)-4-hydroxy-1-((R)-2-(3-((R)-2-(3-(2-hydroxyphenyl)cinnolin-6-yl)-8-azaspiro[4.5]decan-8-yl)isoxazol-5-yl)-3-methylbutanoyl)-N-((S)-1-(4-(4-methylthiazol-5-yl)phenyl)ethyl)pyrrolidine-2-carboxamide]	< 10 nM	A (“A” indicates maximum degradation ≥75%)	> 10 nM	> 75%
Cc1ncsc1-c1ccc([C@H](C)NC(=O)[C@@H]2C[C@@H](O)CN2C(=O)[C@@H](c2cc(-c3cnc(N4CC(c5cc(C6CC6)c6cc(-c7ccccc7O)nnc6c5)C4)nc3)no2)C(C)C)cc1 [Compound 77, (2S,4R)-1-((R)-2-(3-(2-(3-(5-cyclopropyl-3-(2-hydroxyphenyl)cinnolin-7-yl)azetidin-1-yl)pyrimidin-5-yl)isoxazol-5-yl)-3-methylbutanoyl)-4-hydroxy-N-((S)-1-(4-(4-methylthiazol-5-yl)phenyl)ethyl)pyrrolidine-2-carboxamide]	< 10 nM	A (“A” indicates maximum degradation ≥75%)	–	< 50%
Cc1ncsc1-c1ccc([C@H](C)NC(=O)[C@@H]2C[C@@H](O)CN2C(=O)[C@@H](c2cc(N3CCC4(CC3)CC(Oc3ccc5cc(-c6ccccc6O)nnc5c3)C4)no2)C(C)C)cc1 [Compound 78, (2S,4R)-4-hydroxy-1-((R)-2-(3-(2-((3-(2-hydroxyphenyl)cinnolin-7-yl)oxy)-7-azaspiro[3.5]nonan-7-yl)isoxazol-5-yl)-3-methylbutanoyl)-N-((S)-1-(4-(4-methylthiazol-5-yl)phenyl)ethyl)pyrrolidine-2-carboxamide]	> 10 nM	A (“A” indicates maximum degradation ≥75%)	–	< 50%
Cc1ncsc1-c1ccc([C@H](C)NC(=O)[C@@H]2C[C@@H](O)CN2C(=O)[C@@H](c2cc(-c3cnc(N4CC(c5cc6cc(-c7ccccc7O)nnc6cc5C5CC5)C4)nc3)no2)C(C)C)cc1 [Compound 79, (2S,4R)-1-((R)-2-(3-(2-(3-(7-cyclopropyl-3-(2-hydroxyphenyl)cinnolin-6-yl)azetidin-1-yl)pyrimidin-5-yl)isoxazol-5-yl)-3-methylbutanoyl)-4-hydroxy-N-((S)-1-(4-(4-methylthiazol-5-yl)phenyl)ethyl)pyrrolidine-2-carboxamide]	< 10 nM	A (“A” indicates maximum degradation ≥75%)	< 10 nM	> 75%
Cc1nc(N2CCC(c3ccc4cc(-c5ccccc5O)nnc4c3)CC2)ccc1-c1cc([C@H](C(=O)N2C[C@H](O)C[C@H]2C(=O)N[C@@H](C)c2ccc(-c3scnc3C)cc2)C(C)C)on1 [Compound 80, (2S,4R)-4-hydroxy-1-((R)-2-(3-(6-(4-(3-(2-hydroxyphenyl)cinnolin-7-yl)piperidin-1-yl)-2-methylpyridin-3-yl)isoxazol-5-yl)-3-methylbutanoyl)-N-((S)-1-(4-(4-methylthiazol-5-yl)phenyl)ethyl)pyrrolidine-2-carboxamide]	< 10 nM	A (“A” indicates maximum degradation ≥75%)	> 10 nM	> 75%
Cc1cc(N2CCC(c3ccc4cc(-c5ccccc5O)nnc4c3)CC2)ncc1-c1cc([C@H](C(=O)N2C[C@H](O)C[C@H]2C(=O)N[C@@H](C)c2ccc(-c3scnc3C)cc2)C(C)C)on1 [Compound 81, (2S,4R)-4-hydroxy-1-((R)-2-(3-(6-(4-(3-(2-hydroxyphenyl)cinnolin-7-yl)piperidin-1-yl)-4-methylpyridin-3-yl)isoxazol-5-yl)-3-methylbutanoyl)-N-((S)-1-(4-(4-methylthiazol-5-yl)phenyl)ethyl)pyrrolidine-2-carboxamide]	< 10 nM	A (“A” indicates maximum degradation ≥75%)	–	< 50%
Cc1ncsc1-c1ccc([C@H](C)NC(=O)[C@@H]2C[C@@H](O)CN2C(=O)[C@@H](c2cc(N3CCC4(CC3)CC(c3ccc5cc(-c6cc(F)cc(F)c6O)nnc5c3)C4)no2)C(C)C)cc1 [Compound 82, (2S,4R)-1-((R)-2-(3-(2-(3-(3,5-difluoro-2-hydroxyphenyl)cinnolin-7-yl)-7-azaspiro[3.5]nonan-7-yl)isoxazol-5-yl)-3-methylbutanoyl)-4-hydroxy-N-((S)-1-(4-(4-methylthiazol-5-yl)phenyl)ethyl)pyrrolidine-2-carboxamide]	< 10 nM	A (“A” indicates maximum degradation ≥75%)	–	< 50%
Cc1ncsc1-c1ccc([C@H](C)NC(=O)[C@@H]2C[C@@H](O)CN2C(=O)[C@@H](c2cc(N3CCC4(CCN(c5ccc6cc(-c7ccccc7O)nnc6c5)C4)CC3)no2)C(C)C)cc1 [Compound 83, (2S,4R)-4-hydroxy-1-((R)-2-(3-(2-(3-(2-hydroxyphenyl)cinnolin-7-yl)-2,8-diazaspiro [4.5]decan-8-yl)isoxazol-5-yl)-3-methylbutanoyl)-N-((S)-1-(4-(4-methylthiazol-5-yl)phenyl)ethyl)pyrrolidine-2-carboxamide]	< 10 nM	A (“A” indicates maximum degradation ≥75%)	> 10 nM	> 75%
Cc1ncsc1-c1ccc([C@H](C)NC(=O)[C@@H]2C[C@@H](O)CN2C(=O)[C@@H](c2cc(N3CC4(CC(Oc5ccc6cc(-c7ccccc7O)nnc6c5)C4)C3)no2)C(C)C)cc1 [Compound 84, (2S,4R)-4-hydroxy-1-((R)-2-(3-(6-((3-(2-hydroxyphenyl)cinnolin-7-yl)oxy)-2-azaspiro[3.3]heptan-2-yl)isoxazol-5-yl)-3-methylbutanoyl)-N-((S)-1-(4-(4-methylthiazol-5-yl)phenyl)ethyl)pyrrolidine-2-carboxamide]	< 10 nM	A (“A” indicates maximum degradation ≥75%)	> 10 nM	> 50%
CC(C)[C@@H](C(=O)N1C[C@H](O)C[C@H]1C(=O)N[C@@H](C)c1ccccc1)c1cc(N2CC3(CN(c4ccc5cc(-c6ccccc6O)nnc5c4)C3)C2)no1 [Compound 85, (2S,4R)-4-hydroxy-1-((R)-2-(3-(6-(3-(2-hydroxyphenyl)cinnolin-7-yl)-2,6-diazaspiro[3.3]heptan-2-yl)isoxazol-5-yl)-3-methylbutanoyl)-N-((S)-1-phenylethyl)pyrrolidine-2-carboxamide]	< 10 nM	A (“A” indicates maximum degradation ≥75%)	–	< 50%
Cc1ncsc1-c1ccc([C@H](C)NC(=O)[C@@H]2C[C@@H](O)CN2C(=O)[C@@H](c2cc(N3C[C@@H]4[C@H](C3)[C@H]4c3ccc4nnc(-c5ccccc5O)cc4c3)no2)C(C)C)cc1 [Compound 86, (2S,4R)-4-hydroxy-1-((R)-2-(3-((1R,5S,6S)-6-(3-(2-hydroxyphenyl)cinnolin-6-yl)-3-azabicyclo[3.1.0]hexan-3-yl)isoxazol-5-yl)-3-methylbutanoyl)-N-((S)-1-(4-(4-methylthiazol-5-yl)phenyl)ethyl)pyrrolidine-2-carboxamide]	< 10 nM	A (“A” indicates maximum degradation ≥75%)	–	< 50%
Cc1ncsc1-c1ccc([C@H](C)NC(=O)[C@@H]2C[C@@H](O)CN2C(=O)[C@@H](c2cc(N3CC4(CCC(c5ccc6cc(-c7ccccc7O)nnc6c5)CC4)C3)no2)C(C)C)cc1 [Compound 87, (2S,4R)-4-hydroxy-1-((R)-2-(3-(7-(3-(2-hydroxyphenyl)cinnolin-7-yl)-2-azaspiro[3.5]nonan-2-yl)isoxazol-5-yl)-3-methylbutanoyl)-N-((S)-1-(4-(4-methylthiazol-5-yl)phenyl)ethyl)pyrrolidine-2-carboxamide]	< 10 nM	A (“A” indicates maximum degradation ≥75%)	< 10 nM	> 75%
Cc1cc(-c2cc([C@H](C(=O)N3C[C@H](O)C[C@H]3C(=O)N[C@@H](C)c3ccc(-c4scnc4C)cc3)C(C)C)on2)cnc1N1CCC(c2ccc3cc(-c4ccccc4O)nnc3c2)CC1 [Compound 88, (2S,4R)-4-hydroxy-1-((R)-2-(3-(6-(4-(3-(2-hydroxyphenyl)cinnolin-7-yl)piperidin-1-yl)-5-methylpyridin-3-yl)isoxazol-5-yl)-3-methylbutanoyl)-N-((S)-1-(4-(4-methylthiazol-5-yl)phenyl)ethyl)pyrrolidine-2-carboxamide]	< 10 nM	A (“A” indicates maximum degradation ≥75%)	–	< 50%
CC(C)[C@@H](C(=O)N1C[C@H](O)C[C@H]1C(=O)N[C@@H](C)c1ccc(F)cc1)c1cc(N2CC3(CN(c4ccc5cc(-c6ccccc6O)nnc5c4)C3)C2)no1 [Compound 89, (2S,4R)-N-((S)-1-(4-fluorophenyl)ethyl)-4-hydroxy-1-((R)-2-(3-(6-(3-(2-hydroxyphenyl)cinnolin-7-yl)-2,6-diazaspiro[3.3]heptan-2-yl)isoxazol-5-yl)-3-methylbutanoyl)pyrrolidine-2-carboxamide]	< 10 nM	A (“A” indicates maximum degradation ≥75%)	–	< 50%
